Measured values from the NIST ThermoML archive (doi:10.1016/j.jct.2010.08.019).
Where “and” joins values, the source holds several entries; their conditions need not be identical. Equal entries are not always repeated. ± gives the expanded uncertainty stated by the source.

Key:
[1] = refractive index (Na D-line) (dimensionless); xn = mol fraction of the nth substance listed; conditions: 101 kPa, Liquid, Standard Abbe refractometry
[2] = xn = mol fraction of the nth substance listed; conditions: for surface tension liquid-gas: Wilhelmy-plate method; for viscosity / mass density: 101 kPa, Liquid; for viscosity: Falling or rolling sphere viscometry; for mass density: Vibrating tube method
[3] = refractive index (Na D-line) (dimensionless); conditions: Liquid, Standard Abbe refractometry
[4] = for surface tension liquid-gas: Wilhelmy-plate method; for viscosity / mass density: Liquid; for viscosity: Falling or rolling sphere viscometry; for mass density: Vibrating tube method

CC(C)CC(C)(C)C [2,2,4-trimethylpentane] + C1CCOCC1
x2 = 0
Conditions	mass density, [2] [kg/m3]	refractive index, [1]	surface tension liquid-gas, [2] [mN/m]	viscosity, [2] [mPa·s]
293.15 K	691.98 ± 0.18	1.39161 ± 0.00033	18.8 ± 0.4	0.503 ± 0.009
303.15 K	683.61 ± 0.18	1.3866 ± 0.00033	17.9 ± 0.4	0.447 ± 0.009
313.15 K	675.23 ± 0.18	1.38143 ± 0.00033	16.9 ± 0.4	0.404 ± 0.009
323.15 K	666.8 ± 0.19	1.37627 ± 0.00033	16.2 ± 0.4	0.365 ± 0.009

CC(C)O [propan-2-ol] + CC(C)CC(C)(C)C
x1 = 1
Conditions	mass density, [2] [kg/m3]	refractive index, [1]	surface tension liquid-gas, [2] [mN/m]	viscosity, [2] [mPa·s]
293.15 K	785.44 ± 0.15	1.37724 ± 0.00033	21.3 ± 0.4	2.362 ± 0.02
303.15 K	776.75 ± 0.15	1.37286 ± 0.00033	20.4 ± 0.4	1.769 ± 0.016
313.15 K	767.93 ± 0.15	1.36852 ± 0.00033	19.6 ± 0.4	1.331 ± 0.013
323.15 K	758.9 ± 0.16	1.36363 ± 0.00033	18.8 ± 0.4	1.019 ± 0.012

CC(C)O [propan-2-ol] + C1CCOCC1
x1 = 1
Conditions	mass density, [2] [kg/m3]	refractive index, [1]	surface tension liquid-gas, [2] [mN/m]	viscosity, [2] [mPa·s]
293.15 K	785.44 ± 0.15	1.37724 ± 0.00033	21.3 ± 0.4	2.362 ± 0.02
303.15 K	776.75 ± 0.15	1.37286 ± 0.00033	20.4 ± 0.4	1.769 ± 0.016
313.15 K	767.93 ± 0.15	1.36852 ± 0.00033	19.6 ± 0.4	1.331 ± 0.013
323.15 K	758.9 ± 0.16	1.36363 ± 0.00033	18.8 ± 0.4	1.019 ± 0.012

CC(C)O [propan-2-ol]
Conditions	mass density, [4] [kg/m3]	refractive index, [3]	viscosity, [4] [mPa·s]
293.15 K, 101 kPa	785.44 ± 0.15	1.37724 ± 0.00033	2.362 ± 0.02
298.15 K, 101.33 kPa	781.05 ± 0.15	1.3752 ± 0.00033	2.04 ± 0.02
303.15 K, 101 kPa	776.75 ± 0.15	1.37286 ± 0.00033	1.769 ± 0.016
313.15 K, 101 kPa	767.93 ± 0.15	1.36852 ± 0.00033	1.331 ± 0.013
323.15 K, 101 kPa	758.9 ± 0.16	1.36363 ± 0.00033	1.019 ± 0.012

[4]
Conditions	surface tension liquid-gas [mN/m]
293.15 K	21.3 ± 0.4
298.15 K	20.9 ± 0.4
303.15 K	20.4 ± 0.4
313.15 K	19.6 ± 0.4
323.15 K	18.8 ± 0.4

CC(C)CC(C)(C)C [2,2,4-trimethylpentane]
Conditions	mass density, [4] [kg/m3]	refractive index, [3]	viscosity, [4] [mPa·s]
293.15 K, 101 kPa	691.98 ± 0.18	1.39161 ± 0.00033	0.503 ± 0.009
298.15 K, 101.33 kPa	687.7 ± 0.2	1.38906 ± 0.00033	0.475 ± 0.009
303.15 K, 101 kPa	683.61 ± 0.18	1.3866 ± 0.00033	0.447 ± 0.009
313.15 K, 101 kPa	675.23 ± 0.18	1.38143 ± 0.00033	0.404 ± 0.009
323.15 K, 101 kPa	666.8 ± 0.19	1.37627 ± 0.00033	0.365 ± 0.009

[4]
Conditions	surface tension liquid-gas [mN/m]
293.15 K	18.8 ± 0.4
298.15 K	18.3 ± 0.4
303.15 K	17.9 ± 0.4
313.15 K	16.9 ± 0.4
323.15 K	16.2 ± 0.4

C1CCOCC1 [tetrahydropyran]
Conditions	mass density, [4]	refractive index, [3]	viscosity, [4] [mPa·s]
293.15 K, 101 kPa	884.27 ± 0.23 kg/m3	1.39161 ± 0.00037 and 1.42109 ± 0.00037	0.86 ± 0.011
298.15 K, 101.33 kPa	878.8 ± 0.2 kg/m3	1.4186 ± 0.0004	0.8 ± 0.01
303.15 K, 101 kPa	874.07 ± 0.23 kg/m3	1.3866 ± 0.00037 and 1.41599 ± 0.00037	0.749 ± 0.01
313.15 K, 101 kPa	863.76 ± 0.47 kg/m3	1.38143 ± 0.00037 and 1.41092 ± 0.00037	0.658 ± 0.01
323.15 K, 101 kPa	666.8 ± 0.83 kg/m3 and 853.46 ± 0.24 kg/m3	1.37627 ± 0.00037 and 1.40554 ± 0.00037	0.565 ± 0.009

[4]
Conditions	surface tension liquid-gas [mN/m]
293.15 K	27.5 ± 0.4
298.15 K	27.2 ± 0.4
303.15 K	26.2 ± 0.4
313.15 K	25.1 ± 0.4
323.15 K	23.8 ± 0.4
